Measured values reported in US6025387A, “Gastroprotective flavone/flavanone compounds with therapeutic effect on inflammatory bowel disease” (Dong a Pharmaceutical Co., Ltd., priority 1996, dated 2000).
Values after ≈ are worked out from the molar mass of the structure shown.

Key:
[1] = test system: gastric mucosal damage induced by ethanolic HCl; test: Gastritis model induced with ethanolic-HCl; assay type: in vivo, SD male rat; conditions: po, 1 h, rat; for inhibition in vivo at 0.3 mg/kg: 0.3 mg/kg p.o.; for inhibition in vivo at 1 mg/kg: 1 mg/kg p.o.; for inhibition in vivo at 3 mg/kg: 3 mg/kg p.o.
Procedure: Effect on the Gastritis Model Induced with Ethanolic-HCl.
SD male rat(250-350 g) was fasted for 24 hours. The compound was orally administered in suspension of 5% HPMC, and after 1 hour 1.5 mL of 150 mM HCl-80% ethanol was orally administered. After 1 hour the rat was sacrifieced and the stomach was extracted and the ulcer index was measured. The ulcer index was shown by the area of hemorrhage lesion(Mizui, T, et al., Jpn. J. Pharmacol. 1983, 33: 939).

ulcer = conditions: in vivo; cited from earlier work
gastric mucus secretion = test: Measurement of gastric mucus; assay type: in vivo, SD male rat; conditions: oral, rat
Procedure: Measurement of Gastric Mucus
The compound was orally administered into SD male rat (200~250 g). After 1 hour the stomach was extracted. The extracted stomach was immediately washed with 10 mL of cold 0.25M sucrose solution. The gastric mucosa was dyed with 0.1% alcian blue solution for 2 hours. After dyeing, the gastric mucosa was washed with 0.25M sucrose solution twice for 15 minutes and for 45 minutes. The dyed gastric mucosa was treated with 10 mL of 30% dioctyl sodium sulfosuccinate solution for 2 hours to extract dyed mucus completely and optical density of aqueous phase was measured spectrophotometrically at 655 nm. The amount of mucus in the gastric mucosa was shown as the amount of alcian blue after calibration (Kitagawa, H., et al., Drug Res. 1986, 36: 1240-1244).

neutrophils = test: Luminol-dependent chemiluminescence of neutrophils induced by FMLP; assay type: cell-based; conditions: 1 μM FMLP, 0.07 mM luminol; for IC50: Neutrophil, read-out: IC50, inhibition of chemiluminescence generated by neutrophil activation
Procedure: Measurement of luminol-dependent chemiluminescencei iof neutrophil induced by FMLP.
20 mL of 12% sodium caseinate-0.9% saline was administered intraperitoneally (Newsby, A. C., Biochem. J., 1980, 186: 907,. After 20 hours, the intraperitoneal exudate was extracted under ether anesthesia. The exudate was centrifuged, and erythrocytes were removed by hypotonic lysis, and then neutrophil was washed. Neutrophil was ascertained by Wright's dyeing method, and viability was measured by Trypan blue exclusion test. Chemiluminescence was measured by Topcount (Packard Co.). The suspension of 1.5×10^6 of granulocytes, 1 μM of FMLP, 0.07 mM of luminol and the compound in HBSS was used (Dahlgren, C., et al., Infect. Immun., 1985 47: 326-328).
**IC50 (μg/mL): Concentration of the compound at inhibiting
chemiluminescence generated by neutrophil activation to 50%

[2] = test system: chronic gastritis induced with acetic acid; test: Model of chronic gastritis induced with acetic acid; assay type: in vivo, SD male rat; conditions: once a day for 21 days, rat
Procedure: Experiment on the Model of Chronic Gastritis Induced with Acetic Acid
From the next day of the surgical operation, the compound was orally administered once a day for 21 days. After 21 days, the stomach was extracted under ether anesthesis, dipped in 1% formalin solution and the area of gastric lesion was measured. […] An pathological tissue autopsy was carried out for the prepared specimen.

cyclooxygenase = test: Cyclooxygenase activity in HUVEC (PGF1 α synthesis); assay type: cell-based
Procedure: Measurment of Cyclooxygenase Actvity
After addition of the compound to cultured HUVEC, the HUVEC was incubated at 37° C., for 30 minutes, then arachidonic acid (final concentration: 30 .rho.M) was added, and the HUVEC was additionally incubated at 37° C. for 15 minutes. The culture medium was taken, and the activity of cyclooxygenase for 6-Keto-PGF1 α or PGE2 was measured by radioimmunoassay (Mitchell, J. A., et al., Pro. Natl. Acad. Sci. USA 1994, 90: 11693-11697).
**SC200 (ug/mL) : Concentration at increasing generation of […]

TNBS-induced colitis = TNBS-induced colitis model, oral administration; assay type: in vivo, male SD rats; conditions: for lesion scores: once a day for 13 days, rat; for adhesion degree / dilation and extention degree: score 0-3, rat
Procedure: Experiment on the Model of Inflammatory Bowl Diseases Induced with TNBS
7 week-aged male SD rats were fasted for a day, and the rats were put under anesthesia and canula (diameter 3 mm) was inserted into the anus to the depth of 8 cm. 25 mg/mL of TNBS (Trinitrobenzene sulfonic acid) dissolved in 50% ethanol solution was injected to each rat and the rats were positioned at feature of tail up for 1 minute. The solution flowing out was removed and the rats were once washed with 1.5 mL of saline solution. After colitis was induced, the compound was administered orally or intracolonically once a day for 13 days. For control, mesalazine (5-amino salicylic acid) was used for oral administration and prednisolone was used for rectal administration. At 14th day of experiment, each group of the rats were put under ether anesthesis, the colon was extracted and the degree of adhesion and extension of the large intestine were measured and their lesion scores were recorded. After 1% formalin solution was injected to the cavity of the extracted colon to inflate, the both ends of it were bonded with each other and it was all-fixed in 1% formalin solution for 2 hours. The all-fixed colon was cut to lengthy direction and washed to remove surrounding fat tissues and connective fissaes. After cecum was removed, the weight of the colon and the rectum was measured, and the area of ulcer lesion, and microscopic lesion were measured to mark scores according to the criterion. And they were fixed in 10% neutral formalin solution, and the tissue examination of lesion site was performed by general method to mark scores according to the criterion.
Clinical symptoms: Daily, we observed clinical symptoms and survival of the animals. And we measured the weight of the animals at the beginning day, third and eighth day of the experiment.
(0: non-adhesion, 1: adhesion exists but easily taken off by gloved hand, 2: more severe adhesion than 1 exists but easily taken off by scissors, 3: very severe adhesion exists, so it is difficult to be taken off by scissors because of possibility of its perforation.)
Degree of thickening and extension of the large intestine: We marked scores of the degree of thickness and extension of the large intestine according to the criterion, following the method of Kim et al., and compared with the average value of each group.
(0: lesion site non-existing, 1: a few degree of lesion, 2: intermediate degree of lesion, 3: severe degree of lesion)
We scored the lesion examined with the naked eye and compared the average value of each group. The standards of lesion scores as criterion of the damage of the colon by Wallace's method is as followings.
(0: normal, non-damaged, 1: congestion without ulcer 2: congestion and thickening of intestinal wall without ulcer, 3: an ulcer lesion without thickening of intestinal wall, 4: more than two ulcerous/inflammatory lesion, 5: more than two ulcerous/inflammatory lesion or the length of ulcerous/inflammatory lesion is more than 1 cm, 6-10: when the length of lesion is over 2 cm, one point increases everytime 1 cm of the length of ulcerous/inflammatory increases, for example, when the ulcer length is 3 cm, the point is 7.)
Microscopic evaluation: We trimmed the colon giving 3 cm interval from the rectum to the cecum, including the site of lesion examined with the naked eye, to make at least 4 specimens per an individual. […] When the lesion can not be examined with the naked eye, we trimmed the other specimen which has the lesion, with 3 cm interval.

Row | SMILES | inhibition in vivo at 0.3 mg/kg [1] | inhibition in vivo at 1 mg/kg [1] | inhibition in vivo at 3 mg/kg [1] | anti-ulcerative action (ulcer) | also measured
1 | COc1ccc(-c2cc(=O)c3cc(OC)c(OCC(=O)O)cc3o2)cc1OC [7-carboxymethyloxy-3',4',6-trimethoxy flavone] | 30% | 31% | 39% | – | –
2 | O=c1c(O)c(-c2ccc(O)cc2)oc2cc(O)cc(O)c12 [kampferol] | – | – | – | anti-ulcerative action | –
3 | COc1ccc(C2CC(=O)c3c(OC)cc(O)cc3O2)cc1OC (centres unmarked) [7-hydroxy-3',4'5-trimethoxy flavanone, 7-hydroxy-3',4',5-trimethoxy flavanone] | 30% | 57% | 76% | – | –
4 | O=c1c(O)c(-c2ccc(O)c(O)c2)oc2cc(O)cc(O)c12 [quercetin] | – | – | – | anti-ulcerative action | –
5 | O=C(NC(Cc1cc(=O)[nH]c2ccccc12)C(=O)O)c1ccc(Cl)cc1 (centres unmarked) [Rebamipide, 2(4-chlorobenzoylamino)-3-(2-(LH)-quinolinone-4-yl)propanonic acid, reference compound] | – | – | 22% | – | inhibition in vivo at 10 mg/kg ([1]; 10 mg/kg p.o.): 30%; inhibition in vivo at 30 mg/kg ([1]; 30 mg/kg p.o.): 47%; gastric mucus secretion, % Control (gastric mucus secretion; 10 mg/kg): 128 % Control; gastric mucus secretion, % Control (gastric mucus secretion; 100 mg/kg): 136 % Control; IC50, inhibition of chemiluminescence generated by neutrophil activation (neutrophils): 92 µg/mL; IC50 (neutrophils): 92.1 µg/mL (≈ 248 µM); inhibiting% (gastric lesion) ([2]; 10 mg/kg p.o.): 41%; inhibiting% (gastric lesion) ([2]; 100 mg/kg p.o.): 7%
6 | COc1ccc(C2CC(=O)c3c(cc(OCC(=O)O)c(OC)c3O)O2)cc1OC (centres unmarked) [7-carboxymethyloxy-5-hydroxy-3',4',6-trimethoxy flavanone] | 0% | 18% | 50% | – | IC50 (neutrophils): 1.79 µg/mL (≈ 4.43 µM)
7 | COc1ccc(-c2cc(=O)c3c(OC)c(OC)c(OCCO)cc3o2)cc1OC [7-hydroxyethyloxy-3',4',5,6-tetramethoxy flavone] | 43% | 50% | 51% | – | IC50 (neutrophils): 0.13 µg/mL (≈ 0.323 µM)
8 | O=c1cc(-c2ccc(O)c(O)c2)oc2c(O[C@@H]3O[C@H](CO)[C@@H](O)[C@H](O)[C@H]3O)c(O)cc(O)c12 [hypolaetin-8-glucoside] | – | – | – | anti-ulcerative action | –
9 | O=C1C[C@@H](c2ccc(O)cc2)Oc2cc(O)cc(O)c21 [naringenin] | – | – | – | anti-ulcerative action | –
10 | COc1ccc([C@@H]2CC(=O)c3c(O)cc(O[C@@H]4O[C@H](CO[C@@H]5O[C@@H](C)[C@H](O)[C@@H](O)[C@H]5O)[C@@H](O)[C@H](O)[C@H]4O)cc3O2)cc1O [hesperidine] | – | – | – | anti-ulcerative action | –
11 | COc1ccc(-c2cc(=O)c3c(O)c(OC)c(OCC(=O)O)cc3o2)cc1OC [7-carboxymethyloxy-5-hydroxy-3',4',6-trimethoxy flavone] | 16% | 77% | 56% | – | IC50 (neutrophils): 1.73 µg/mL (≈ 4.3 µM); SC200, concentration increasing generation of PGF1α to 200% (cyclooxygenase): 18.41 µg/mL
12 | CNC(=O)COc1cc(OC)c2c(=O)cc(-c3ccc(OC)c(OC)c3)oc2c1 [7-(N-methylamidomethyloxy)-3',4',5-trimethoxy flavone] | 43% | 47% | 45% | – | –
13 | COc1ccc(-c2cc(=O)c3c(O)cc(OC)cc3o2)cc1 [apigenin-7,4'-dimethylether] | – | – | – | anti-ulcerative action | –
14 | COC(=O)COc1cc(OC)c2c(=O)cc(-c3ccc(OC)c(OC)c3)oc2c1 [7-methoxycarbomethyloxy-3',4',5-trimethoxy flavone] | – | – | – | – | IC50 (neutrophils): 0.95 µg/mL (≈ 2.37 µM)
15 | COc1ccc(-c2cc(=O)c3c(O)c(OC)ccc3o2)cc1OC [5-hydroxy-3',4',6-trimethoxy flavone] | 38% | 42% | 64% | – | –
16 | COc1ccc(-c2cc(=O)c3c(OC)cc(OCCO)cc3o2)cc1OC [7-hydroxyethyloxy-3',4',5-trimethoxy flavone] | 0% | 34% | 47% | – | –
17 | Nc1ccc(O)c(C(=O)O)c1 [mesalazine, 5-amino salicylic acid, reference compound] | – | – | – | – | lesion scores (TNBS-induced colitis; 25 mg/kg p.o.): 2.8; adhesion degree (TNBS-induced colitis; 25 mg/kg p.o.): 1.4; dilation and extention degree (TNBS-induced colitis; 25 mg/kg p.o.): 0.9; lesion scores (TNBS-induced colitis; 50 mg/kg p.o.): 2.2; adhesion degree (TNBS-induced colitis; 50 mg/kg p.o.): 1.0; dilation and extention degree (TNBS-induced colitis; 50 mg/kg p.o.): 1.1
